Reference: patent US8569295B2, “Bicyclic urea compounds” (Merck Patent GmbH, priority 2009, dated 2013)

Columns and labels:
RON kinase = target: T1, RON kinase (Homo sapiens, UniProt Q04912); experiment: RON kinase biochemical mobility shift assay (Caliper Desktop Profiler); conditions: RON kinase inhibition
T1 construct: purchased Caliper Life Sciences
Procedure: (§1) The Aurora assays described here are performed on two Caliper Life Sciences systems: the LC3000 and the Desktop Profiler. The RON kinase assays are performed on the Desktop Profiler only. These provide data on enzyme activity via measurement of the relative amounts of phosphorylated or unphosphorylated fluorescently labelled substrate peptide at the end of an enzymatic reaction. These different states of peptide are resolved by applying a potential difference across the sample. The presence of the charged phosphate group on the product (as opposed to the substrate) causes a different peptide mobility between the two peptides. This is visualized by excitation of the fluorescent label on the substrate and product peptides and represented as peaks within the analysis software.
(§2) The Desktop Profiler utilizes the same priniciple as the LC3000 for calculating percentage conversion of a substrate to product. Caliper Life Sciences provides proprietary flash frozen pre-made 384 well plates containing selected kinases. Each column in the 384 well plate contains a particular selected kinase. A second plate, the ‘substrate plate’ contains a mix of fluorescently labeled peptide substrate and ATP. These are arranged in columns so that transfer for substrate plate to enzyme plate provides the correct enzyme with the correct substrate/ATP concentration. Compounds are added to a thawed enzyme plate in the desired format, in single concentrations. Reactions are initiated by transfer of the substrate/ATP mix from the substrate plate. The enzyme plate is incubated for 90 minutes at 25 C. The reaction is stopped by addition of 70 ul of Stop Buffer (100 mM HEPES pH 7.5, 0.015% Brij-35, 10 mM EDTA (Sigma, E7889)).
(§3) Reading of the plate in the Profiler is identical to the LC3000, and the ratio between substrate and product peaks provides the activity of the enzyme in that well. This is best represented by a plate heat map which colors each well by percent inhibition as compared to positive and negative controls (no inhibitors and no ATP respectively).

GST-Aurora A = target: T2, GST-Aurora A (Homo sapiens, UniProt O14965); experiment: Aurora A kinase biochemical mobility shift assay (Caliper LC3000 / Desktop Profiler); conditions: AK A (Aurora kinase A) inhibition
T2 construct: N-terminal GST fusion with full length Aurora A (1-403 amino acids); purchased Carna Biosciences 05-101
T2 sequence (O14965 1-403): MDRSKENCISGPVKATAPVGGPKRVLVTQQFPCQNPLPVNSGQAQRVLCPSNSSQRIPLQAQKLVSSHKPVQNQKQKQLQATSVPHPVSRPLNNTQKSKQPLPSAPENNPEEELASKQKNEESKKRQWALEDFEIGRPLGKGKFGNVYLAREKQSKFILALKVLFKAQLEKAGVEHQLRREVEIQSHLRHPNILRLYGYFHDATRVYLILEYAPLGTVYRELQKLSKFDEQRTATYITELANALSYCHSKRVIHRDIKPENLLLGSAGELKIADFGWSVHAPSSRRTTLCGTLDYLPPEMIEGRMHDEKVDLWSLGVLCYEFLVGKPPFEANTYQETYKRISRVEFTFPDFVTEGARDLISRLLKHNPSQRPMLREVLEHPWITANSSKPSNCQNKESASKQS
Procedure: as §1
In order to measure inhibitor activity of Aurora A inhibitors in the Caliper Life Sciences LC3000, a TTP Mosquito liquid handling instrument is used to place 0.25 ul of the appropriate concentration of inhibitor in 100% DMSO (for a dose response curve calculation) into each well of a 384-well plate. To this reaction components are added to a final volume of 25 ul: • 0.067 ng/ul GST-Aurora A (Carna Biosciences 05-101. N-terminal GST fusion with full length Aurora A (1-403 amino acids), accession number NP_940835.1). • 15 uM ATP (Fluka, 02055) • 1 mM DTT (Sigma, D0632) • 1 mM MgCl2 (Sigma, M1028) • 1 uM substrate peptide (sequence FITC-LRRASLG-(CONH2), synthesized by Tufts Peptide Synthesis service. • 100 mM HEPES pH 7.5 (Calbiochem, 391338) • 0.015% Brij-35 (Sigma, B4184)
The reaction is incubated for 90 min at 25 C, and then stopped by the addition of 70 ul of Stop buffer (100 mM HEPES pH 7.5, 0.015% Brij-35, 10 mM EDTA (Sigma, E7889)).
The plate is read on a Caliper LC3000 in an Off-Chip mobility shift assay format, using the following parameters for a 12-sipper chip: screening pressure −1.8 psi, upstream voltage −2700, downstream voltage −1000. These conditions cause unphosphorylated substrate and phosphorylated product peptide to resolve as separate peaks allowing direct measurement of percentage of conversion of substrate to product. The percent conversion can be plotted against concentration of inhibitor to produce a sigmoidal dose response curve, from which an IC50 can be calculated using XLFit for Microsoft Excel.
as §2, §3

normal human cell growth = conditions: in vitro, normal human cells vs tumor cells of various origins; cited from earlier work

T1 sequence (Q04912 25-1400): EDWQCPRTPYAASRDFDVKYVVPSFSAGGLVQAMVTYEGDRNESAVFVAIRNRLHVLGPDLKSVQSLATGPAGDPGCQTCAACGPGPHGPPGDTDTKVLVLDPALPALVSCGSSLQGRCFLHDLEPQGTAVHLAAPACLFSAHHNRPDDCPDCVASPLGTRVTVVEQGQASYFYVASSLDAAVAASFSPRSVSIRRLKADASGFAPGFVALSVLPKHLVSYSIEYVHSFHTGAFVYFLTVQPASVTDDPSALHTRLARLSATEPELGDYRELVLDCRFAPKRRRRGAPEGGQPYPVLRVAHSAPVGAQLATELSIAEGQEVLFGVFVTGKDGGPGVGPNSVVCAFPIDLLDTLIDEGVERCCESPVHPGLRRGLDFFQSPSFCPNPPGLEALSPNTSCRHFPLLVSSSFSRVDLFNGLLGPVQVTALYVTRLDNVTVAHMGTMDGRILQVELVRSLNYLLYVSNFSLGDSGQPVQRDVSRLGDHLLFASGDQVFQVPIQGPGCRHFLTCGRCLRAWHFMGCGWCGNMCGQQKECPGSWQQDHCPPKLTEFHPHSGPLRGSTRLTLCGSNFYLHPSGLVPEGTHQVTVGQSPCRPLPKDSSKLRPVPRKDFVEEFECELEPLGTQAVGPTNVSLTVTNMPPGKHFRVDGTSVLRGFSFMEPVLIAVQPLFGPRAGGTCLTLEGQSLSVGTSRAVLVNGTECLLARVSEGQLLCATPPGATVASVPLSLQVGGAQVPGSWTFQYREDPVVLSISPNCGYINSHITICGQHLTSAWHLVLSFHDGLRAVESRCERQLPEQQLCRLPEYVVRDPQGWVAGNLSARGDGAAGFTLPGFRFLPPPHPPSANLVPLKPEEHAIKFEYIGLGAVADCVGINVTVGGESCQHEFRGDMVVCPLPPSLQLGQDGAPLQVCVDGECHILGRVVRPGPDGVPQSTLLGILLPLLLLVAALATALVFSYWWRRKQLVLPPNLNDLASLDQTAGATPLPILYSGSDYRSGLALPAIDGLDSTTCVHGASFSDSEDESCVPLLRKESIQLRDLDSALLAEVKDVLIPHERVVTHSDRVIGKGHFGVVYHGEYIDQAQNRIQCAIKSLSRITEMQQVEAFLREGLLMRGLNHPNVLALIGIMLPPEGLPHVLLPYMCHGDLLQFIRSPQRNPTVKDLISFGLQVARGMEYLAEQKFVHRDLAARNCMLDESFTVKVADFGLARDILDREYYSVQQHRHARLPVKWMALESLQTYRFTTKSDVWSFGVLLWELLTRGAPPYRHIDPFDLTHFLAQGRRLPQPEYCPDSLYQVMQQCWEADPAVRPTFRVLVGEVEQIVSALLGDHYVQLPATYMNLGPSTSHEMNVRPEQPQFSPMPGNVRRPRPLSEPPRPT

IC50 (RON kinase) | IC50 (GST-Aurora A) | Compound | fold less effective at inhibiting normal human cell growth than tumor cell proliferation (normal human cell growth)
10 to 100 nM | 10 to 100 nM | O=C1NCc2c(Oc3ccc(NC(=O)c4cc(Cl)cnc4Cl)cc3F)ccnc2N1 [Example 65, 2,5-dichloro-N-{3-fluoro-4-[(2-oxo-1,2,3,4-tetrahydropyrido[2,3-d]pyrimidin-5-yl)oxy]phenyl}-nicotinamide] | –
10 to 100 nM | 10 to 100 nM | O=C1NCc2c(Oc3ccc(NC(=O)c4cccc(Br)c4)cc3F)ccnc2N1 [Example 66, 3-bromo-N-{3-fluoro-4-[(2-oxo-1,2,3,4-tetrahydropyrido[2,3-d]pyrimidin-5-yl)oxy]phenyl}-benzamide] | –
10 to 100 nM | 10 to 100 nM | O=C(Nc1cccc(Cl)c1)Nc1ccc(Oc2ccnc3c2CNC(=O)N3)c(F)c1 [Example 67, N-(3-chlorophenyl)-N′-{3-fluoro-4-[(2-oxo-1,2,3,4-tetrahydropyrido[2,3-d]pyrimidin-5-yl)oxy]phenyl}urea] | –
100 to 1000 nM | 100 to 1000 nM | O=C1NCc2c(Oc3ccc(NS(=O)(=O)c4ccccc4F)cc3F)ccnc2N1 [Example 70, 2-fluoro-N-{3-fluoro-4-[(2-oxo-1,2,3,4-tetrahydropyrido[2,3-d]pyrimidin-5-yl)oxy]phenyl}benzenesulfonamide] | –
100 to 1000 nM | 100 to 1000 nM | COc1cccc(S(=O)(=O)Nc2ccc(Oc3ccnc4c3CNC(=O)N4)c(F)c2)c1 [Example 71, N-{3-fluoro-4-[(2-oxo-1,2,3,4-tetrahydropyrido[2,3-d]pyrimidin-5-yl)oxy]phenyl}-3-methoxybenzenesulfonamide] | –
– | – | Nc1nc(Nc2ccc(S(N)(=O)=O)cc2)nn1C(=O)c1c(F)cccc1F [JNJ-7706621] | about 10 fold
